Data set [1] has as its system ovariectomized (ovex) rats. Briefly: Ovariectomized rat model of post-menopausal osteoporosis: femur density by single photon absorptiometry. It is filed as in vivo, Sprague Dawley rats. The following applies: for inhibition in vivo at 1 mg/kg: Rattus norvegicus, read-out: % Inhibition of Bone Loss; for prevention of bone loss (femur density), in words: oral. The procedure: In the examples illustrating the methods, a model of post-menopausal osteoporosis was used in which effects of different treatments upon femur density were determined.
Seventy-five day old female Sprague Dawley rats (weight range of 225 to 275 g) were obtained from Charles River Laboratories (Portage, Mich.). They were housed in groups of 3 and had ad libitum access to food (calcium content approximately 1%) and water. Room temperature was maintained at 22.2°±1.7° C. with a minimum relative humidity of 40%. The photoperiod in the room was 12 hours light and 12 hours dark.
The right femurs were excised and scanned at the distal metaphysis 1 mm from the patellar groove with single photon absorptiometry. Results of the densitometer measurements represent a calculation of bone density as a function of the bone mineral content and bone width.

The subject of data set [2] is ovariectomized (ovex) rats. Kind of data set: Uterine wet weight in ovariectomized rats. The following applies: for % Uterine Weight Gain: relative to estrogen treated ovex animals.
Procedure: (§1) One week after arrival, the rats underwent bilateral ovariectomy under anesthesia (44 mg/kg Ketamine and 5 mg/kg Xylazine (Butler, Indianapolis, Ind.) administered intramuscularly). Treatment with vehicle, estrogen, or a compound of formula I was initiated on the day of surgery following recovery from anesthesia. Oral dosage was by gavage in 0.5 mL of 1% carboxymethylcellulose (CMC). Body weight was determined at the time of surgery and weekly thereafter and the dosage was adjusted with changes in body weight. Vehicle or estrogen treated ovariectomized (ovex) rats and non-ovariectomized (intact) rats were evaluated in parallel with each experimental group to serve as negative and positive controls.
(§2) The rats were treated daily for 35 days (6 rats per treatment group) and sacrificed by decapitation on the 36th day. […] At the time of sacrifice, the uteri were removed, dissected free of extraneous tissue, and the fluid contents were expelled before determination of wet weight in order to confirm estrogen deficiency associated with complete ovariectomy. […] The uteri were then placed in 10% neutral buffered formalin to allow for subsequent histological analysis.
Data set [3] relates to ovariectomized (ovex) rats. Conditions: rat, in vivo, po.
Procedure: as §1, §2
The subject of the next data set is ovariectomized rats. Kind of data set: Uterine histological parameters of estrogenicity in ovariectomized rats. The following applies: for Epithelial Height / Myometrial Thickness / Stromal Eosinophils / Stromal Expansion: Table 6, ovex rats, 1 mg/kg. On the procedure:
A relatively narrow range of doses of raloxifene and tamoxifen was administered orally to ovariectomized rats as in the previous example.
Increases in epithelial height are a sign of estrogenicity of therapeutic agents and may be associated with increased incidence of uterine cancer.
Estrogenicity was also assessed by evaluating the adverse response of eosinophil infiltration into the stromal layer of the uterus (Table 6).

Data set [4] can be described thus: Oral administration to human subjects in the clinic: parent compound in serum.
Data set [5] relates to uterine uptake of tritiated-estradiol. Kind of data set: Laboratory animal studies: uterine uptake of tritiated-estradiol and uterotrophic response to estradiol. The following applies: laboratory animals; conditions where raloxifene was extensively conjugated in plasma.
Source text: Experiments were undertaken to address the bioavailability issue in laboratory animals where biological activity could be assessed.
The conditions of data set [6]: Love et al. 1992; Turner et al. 1988; cited from earlier work.
Setting [7] is: ovex rats, 1 mg/kg oral, relative to estrogen treated ovex animals.
Setting [8] is: Table 5, ovex rats, 1 mg/kg oral.

Structures are written as SMILES. Entries after “also recorded” stand apart in the source; their conditions may differ. Counter-ions that a name gives are not always drawn. Like-named read-outs stand apart in the source and are kept apart here.

For `O=C(Oc1ccc(-c2sc3cc(OC(=O)c4ccc(F)cc4)ccc3c2C(=O)c2ccc(OCCN3CCCCC3)cc2)cc1)c1ccc(F)cc1` [Compound 2, 6-(4-Fluorobenzoyloxy)-2-[4-(4-fluorobenzoyloxy)-phenyl]-benzo[b]thien-3-yl-[4-[2-(piperidin-1-yl)ethoxy)-phenyl]-methanone Hydrochloride], the inhibition in vivo at 1 mg/kg in data set [1] (setting [7]) came to 86%. Moreover, the “% Uterine Weight Gain” value in data set [2] (ovex rats, 1 mg/kg oral) was found to be 26%.

For the compound `CCCC(=O)Oc1ccc(-c2sc3cc(OC(=O)CCC)ccc3c2C(=O)c2ccc(OCCN3CCCCC3)cc2)cc1` [Compound 6, 6-(n-Butanoyloxy)-2-[4-(n-butanoyloxy)phenyl]benzo[b]thien-3-yl-[4-[2-(piperidin-1-yl)ethoxy]phenyl]methanone Hydrochloride], the inhibition in vivo at 1 mg/kg in data set [1] (setting [7]) was 24%. The “% Uterine Weight Gain” value in data set [2] (ovex rats, 1 mg/kg oral) was determined as 19%.

Take `CC(C)(C)C(=O)Oc1ccc(-c2sc3cc(OC(=O)C(C)(C)C)ccc3c2C(=O)c2ccc(OCCN3CCCCC3)cc2)cc1.Cl` [Compound 8, 6-(2,2-Dimethylpropanoyloxy)-2-[4-(2,2-dimethyl-propanoyloxy)phenyl]benzo[b]thien-3-yl-[4-[2-(piperidin-1-yl)ethoxy]phenyl]methanone Hydrochloride]: the inhibition in vivo at 1 mg/kg in data set [1] (setting [7]) is 66%. The “% Uterine Weight Gain” value in data set [2] (ovex rats, 1 mg/kg oral) is on record as 24%.

Take `CC(C)(C)CC(=O)Oc1ccc(-c2sc3cc(OC(=O)CC(C)(C)C)ccc3c2C(=O)c2ccc(OCCN3CCCCC3)cc2)cc1` [Compound 10, 6-(3,3-Dimethylbutanoyloxy)-2-[4-(3,3-dimethylbutanoyloxy)-phenyl]benzo[b]thien-3-yl-[4-[2-(piperidin-1-yl)ethoxy]-phenyl]methanone Hydrochloride]: the inhibition in vivo at 1 mg/kg in data set [1] (setting [7]) is 52%. In data set [2] (ovex rats, 1 mg/kg oral), the “% Uterine Weight Gain” value is 24%.

On to `Cc1ccc(C(=O)Oc2ccc(-c3sc4cc(OC(=O)c5ccc(C)cc5)ccc4c3C(=O)c3ccc(OCCN4CCCCC4)cc3)cc2)cc1` [Compound 11, 6-(4-Methylbenzoyloxy)-2-[4-(4-methylbenzoyloxy)-phenyl]benzo[b]thien-3-yl[4-[2-(piperidin-1-yl)ethoxy]-phenyl]methanone Hydrochloride], for which, in data set [1] (setting [7]), the inhibition in vivo at 1 mg/kg stood at 26%. Besides, the “% Uterine Weight Gain” value in data set [2] (ovex rats, 1 mg/kg oral) is 28%.

In the case of `O=C(Oc1ccc(-c2sc3cc(OC(=O)c4ccccc4)ccc3c2C(=O)c2ccc(OCCN3CCCCC3)cc2)cc1)c1ccccc1` [Compound 12], the “% Inhibition of Bone Loss” value in data set [1] (setting [7]) turned out to be 60%. Also, the “% Uterine Weight Gain” value in data set [3] (1 mg/kg) came to 15%.

As for `CCCCOC(=O)Oc1ccc(-c2sc3cc(OC(=O)OCCCC)ccc3c2C(=O)c2ccc(OCCN3CCCCC3)cc2)cc1.Cl` [Compound 14, 6-(n-Butoxycarbonyloxy)-2-[4(n-butoxycarbonyloxy)phenyl]-benzo[b]thien-3-yl[4-[2-(piperidin-1-yl)ethoxy]phenyl]-methanone Hydrochloride], in data set [1] (setting [7]), the inhibition in vivo at 1 mg/kg came to 121%. Besides, in data set [2] (ovex rats, 1 mg/kg oral), the “% Uterine Weight Gain” value came to 32%.

In the case of `O=C(Oc1ccccc1)Oc1ccc(-c2sc3cc(OC(=O)Oc4ccccc4)ccc3c2C(=O)c2ccc(OCCN3CCCCC3)cc2)cc1` [Compound 16, 6-(Phenyloxycarbonyloxy)-2-[4(phenyloxycarbonyloxy)phenyl]-benzo[b]thien-3-yl[4-[2-(piperidin-1-yl)ethoxy]phenyl]-methanone hydrochloride], in data set [1] (setting [7]), the inhibition in vivo at 1 mg/kg was 108%. Also, the “% Uterine Weight Gain” value in data set [2] (ovex rats, 1 mg/kg oral) is 25%.

`COCC(=O)Oc1ccc(-c2sc3cc(OC(=O)COC)ccc3c2C(=O)c2ccc(OCCN3CCCCC3)cc2)cc1` [Compound 18, 6-(Methoxyethanoyloxy)-2-[4(methoxyethanoyloxy)phenyl]-benzo[b]thien-3-yl [4-[2-(piperidin-1-yl)ethoxy]phenyl]-methanone]: the inhibition in vivo at 1 mg/kg in data set [1] (setting [7]) was 21%. Besides, in data set [2] (ovex rats, 1 mg/kg oral), the “% Uterine Weight Gain” value was determined as 17%.

Consider `C#C[C@]1(O)CC[C@H]2[C@@H]3CCc4cc(O)ccc4[C@H]3CC[C@@]21C` [EE2, ethynyl estradiol, reference compound], for which the “eosinophil infiltration into the stromal layer of the uterus, in words” value in the data set with ovariectomized rats (rat, in vivo) is “caused a large increase in eosinophil infiltration”. Moreover, the “epithelial height, in words” value in the data set with ovariectomized rats (rat, in vivo, po) is listed as “increased epithelial height to a thickness greater than intact rats”. Further, the “Bone Density” value in data set [1] (Table 4 Experiment A, ovex rats, EE2 100 μg/kg oral) is given as 202 ± 6 mg/cm/cm; in data set [1] (Table 4 Experiment B, ovex rats, EE2 100 μg/kg oral) it was 215 ± 11 mg/cm/cm; in data set [1] (Table 5, ovex rats, 100 μg/kg oral) it was 212 ± 10 mg/cm/cm; in data set [1] (ovex rats, 100 μg/kg oral daily 35 days, five experiments accumulated, mean of thirty rats ± SEM (Table 2)), 210 ± 4 mg/cm/cm. The “prevention of bone loss (femur density), in words” value (“prevention of bone loss” for short) in data set [1] (ovariectomized rats) is reported as “prevented this loss of bone in a dose dependent manner”. In addition, the “uterine weight, in words” value in data set [3] is “approached those of the intact controls”.

As to `Cl.O=C(c1ccc(OCCN2CCCCC2)cc1)c1c(-c2ccc(O)cc2)sc2cc(O)ccc12` [raloxifene, 6-hydroxy-2-(4-hydroxyphenyl)-benzo[b]thien-3-yl-4-[2-(piperidin-1-yl)ethoxyphenyl]-methanone hydrochloride], in the data set with ovariectomized rats, the “Epithelial Height” value came out at 1.67, the “Myometrial Thickness” value was 5.42, the “Stromal Eosinophils” value is given as 1.17 and the “Stromal Expansion” value was determined as 14.00. In the data set on ovariectomized rats (ovariectomized rats), the “eosinophil infiltration into the stromal layer of the uterus, in words” value is “did not cause any increase”; the “thickness of the stroma and myometrium, in words” value was “an increase in these measurements that was much less than the effect of estrogen”; the “total score of estrogenicity (compilation of all four parameters)” value is recorded as “significantly less estrogenic than tamoxifen”. The “epithelial height, in words” value with ovariectomized rats (ovariectomized rats, oral) is recorded as “only at one dose was there any statistically measurable increase in epithelial height over the ovariectomized controls”. The “Bone Density” value in data set [1] (Table 4 Experiment B, ovex rats, raloxifene 1 mg/kg alone) was determined as 198 ± 11 mg/cm/cm. Besides, the “Bone Density” value in data set [1] (setting [8]) was 207 ± 13 mg/cm/cm. In addition, the “prevention of bone loss” value in data set [1] (ovariectomized rats, hydrochloride) is reported as “prevented bone loss in a dose dependent manner; also recorded: significantly reduced bone loss; also recorded: displayed the ability to prevent reduction of femur density”. In data set [1] (ovariectomized rats, given in combination with ethynyl estradiol), the “effect on the protective effect of estrogen on bone density” value is “did not appreciably reduce the protective effect of the estrogen on bone density”. For the same compound, in data set [1] (ovex rats, 0.01 mg/kg oral, 35 days, five assays combined, thirty rats, mean ± SEM (Table 3)), the “Bone Density” value is listed as 176 ± 3 mg/cm/cm. In addition, the “Bone Density” value in data set [1] (ovex rats, 0.10 mg/kg oral, 35 days, five assays combined, thirty rats, mean ± SEM (Table 3)) worked out at 197 ± 3 mg/cm/cm. The “Bone Density” value in data set [1] (ovex rats, 1.00 mg/kg oral, 35 days, five assays combined, thirty rats, mean ± SEM (Table 3)) stood at 201 ± 3 mg/cm/cm. Further, in data set [1] (ovex rats, 10.00 mg/kg oral, 35 days, five assays combined, thirty rats, mean ± SEM (Table 3)), the “Bone Density” value turned out to be 199 ± 3 mg/cm/cm. For the same compound, in data set [3] (1 mg/kg), the “Uterine Weight” value turned out to be 198 ± 9 mg. In data set [4], the “clearance from the bloodstream” value is “cleared quickly from the bloodstream”, the “conjugation following oral administration” value was “extensively conjugated to the glucuronidated form” and the “parent compound in the serum” value is “not detected”. In data set [5], the “inhibition of the normal uterotrophic response to estradiol” value was “maximally active” and the “inhibition of uterine uptake of tritiated-estradiol” value is reported as “maximally active”.

For the compound `CC/C(=C(\c1ccccc1)c1ccc(OCCN(C)C)cc1)c1ccccc1` [tamoxifen], in the data set with ovariectomized rats, the “Epithelial Height” value turned out to be 2.58, the “Myometrial Thickness” value is reported as 5.50, the “Stromal Eosinophils” value came to 2.83 and the “Stromal Expansion” value is 14.17. In the data set on ovariectomized rats (ovariectomized rats), the “eosinophil infiltration into the stromal layer of the uterus, in words” value is listed as “caused a significant increase”; the “thickness of the stroma and myometrium, in words” value is on record as “an increase in these measurements that was much less than the effect of estrogen”. In addition, the “epithelial height, in words” value with ovariectomized rats (ovariectomized rats, oral) was “increased epithelial height equal to that of an intact rat”. Further, in the data set with ovariectomized rats (ovariectomized rats, all doses given), the “increase in epithelial height over the response seen with raloxifene” value is “six-fold”. For the same compound, the “Bone Density” value in data set [1] (setting [8]) worked out at 204 ± 7 mg/cm/cm. In addition, the “prevention of bone loss” value in data set [1] (ovariectomized rats) is given as “displayed the ability to prevent reduction of femur density”. The “Uterine Weight” value in data set [2] (setting [8]) is listed as 216 ± 18 mg. In addition, the “uterine weight, in words” value in data set [2] (ovariectomized rats, oral) is “only modest uterotrophic activity”. Also, the “inhibition of bone loss” value in data set [6] was “has been shown to inhibit bone loss”.

The values are drawn from patent US6906086B2, “Methods for inhibiting bone loss” (Eli Lilly and Company, priority 1992, dated 2005).
